Experimental data reported in patent publication US11969499B2, “Hydrogel delivery of sting immunotherapy for treatment cancer” (WILLIAM MARSH RICE UNIVERSITY, priority 2017, dated 2024).
“Also recorded” adds a separate entry of the source. Where two headings read alike, the source gives them in different places.

Columns and labels:
[1] = CDN drug release kinetics from hydrogels (UV absorbance at 259 nm); assay type: physicochemical; conditions: for release profile of gels (FIG. 3A): CDN release, preliminary data; for CDN release compared to collagen (FIG. 5B): 30 μL gels, 910 μM CDN, under 200 μL HBSS, 24 h
Description: CDN release kinetics. 30 μL CDN-loaded gel aliquots are deposited into 96 well plates with 200 μL of buffer added to the top of the gels at time point t=0. For all kinetics experiments, a Thermo Scientific Nanodrop 2000C Spectrophotometer is used to measure UV absorbance at 259 nm, the characteristic wavelength of maximum absorbance for the adenine nucleobases present in the CDN. See FIG. 1A for an example of preliminary release kinetics data.
CDN drug release kinetics. To study the kinetics of CDN release from STINGel vs. collagen gel, 30 μL CDN-loaded gel aliquots were deposited into Falcon® 96 well flat bottom polystyrene plates (Becton Dickinson Labware, Franklin Lakes, NJ). For each experiment, cylindrical pucks of the 30 μL gel aliquots were created in each well, allowing the pipetted gels to shear recover for at least 5 mM before adding 200 μL of buffer (1×HBSS for STINGel, lx DPBS for collagen, according to gelation requirements) to the top of the gels at what was defined as t=0 for the start of kinetics experiments. The buffer height was approximately 2.5 mm, the gel thickness approximately 0.5 mm, and the gel's solvent exposed surface area approximately 12.6 mm^2.
A Thermo Scientific Nanodrop 2000C Spectrophotometer was used to measure UV absorbance at 259 nm, the characteristic wavelength of maximum absorbance for the CDN's adenine nucleobases. An extinction coefficient of 24,000 M^−1 cm^−1 at 259 nm was used. Absorbance measurements were taken by removal of 1 μL aliquots from the surface of the buffers, measuring the increase in absorbance over time. Release of CDN was measured over the course of the first 24 hours and converted to total percent released, with additional measurements also made at 48 and 72 hours to confirm that the samples had reached equilibrium.

MOC2-E6E7 cells = test: In vitro live/dead cell viability in unloaded and CDN-loaded MDP hydrogel; assay type: cell-based; conditions: for cytocompatibility of unloaded hydrogel: no CDN, cells in 3-D gel, up to 7 days; for percent cell viability per mm3 of hydrogel vs no CDN / percent cell viability per mm3 of hydrogel: Day 7
Description: Preparation of cell—laden hydrogel for in vitro viability. MDP gel formulations with MOC2-E6E7 cells were prepared by diluting a cell suspension of 2,000,000 cells/mL in 2×HBSS with an equal volume of 4×CDN. The resulting suspension was then added to an equal volume of sterile 2 wt. % peptide in 298 mM sucrose and mixed to produce final samples of approximately 35,000 cells per 70 μL of 1 wt. %, 149 mM sucrose gel. Gels were then transferred into 0.4 cm 2 wells of Lab-Tek 16 well glass chamber slides (Thermo Fischer, Rochester, NY), pipetted to produce 70 μL pucks with flat profiles. Samples were allowed to shear recover for 5-10 mM before adding 200 μL cell media on top of each gel. The cell media was changed every 2 days, taking care to not dislodge the hydrogel material.
Cell viability was determined at each desired time point by performing live/dead assays as described below. Live/dead staining solution was prepared in DPBS with 2 μM Calcein AM for live cells (Life Technologies), 4 μM Ethidium homodimer for dead cells (Life Technologies), and 5 μg/mL Hoechst 33342 for nuclei (MP Biomedicals, Solon, OH). […] Cell media was removed and the gels were washed with PBS. Samples were then stained with 100 μL of prepared solution by incubating at RT for 15-30 mM. Following staining, gels were placed in PBS for immediate analysis by confocal microscopy. Gels were analyzed by z-stack imaging (100 μm) using a Nikon A1 Confocal Microscope with 20× air and 40× water objectives (405 nm blue channel laser, 488 nm green channel laser, 561 nm red channel laser). Image processing was done using NIS Elements, and live/dead cell counting was performed using the cell identification tool in Imaris 3D/4D Image Processing software, manually verified with nuclear counts when resolution allowed.

[2] = In vivo subcutaneous hydrogel implants, histology (Masson's trichrome, H&E); conditions: 910 μM CDN where loaded
Description: In vivo subcutaneous implants. 200 μL subcutaneous injections are made in two separate 1-inch spaced sites on the dorsal flank. At tested time points mice are euthanized and the dorsal skin around the entire implant is removed, washed with PBS, and fixed in formalin for 24 hours prior to tissue processing (Wellings & Atherton, 1997; Guy & Fields, 1997). Details are provided in the Vertebrate Animal section. Tissue is processed to paraffin blocks, sectioned at 7 μm, deparaffinized and stained for cellular infiltrate using hematoxylin and eosin (H&E) and Masson's Trichrome. Here, and elsewhere, male and female populations will be assessed combined as well as separately to determine if sexual dichotomy exists in the biomaterial interaction and regenerative response.
Subcutaneous experiments and histology. Male/female mice (C57BL/6 strain) of age 8-12 weeks were obtained for subcutaneous experiments, which were conducted with Rice IACUC approval and according to NIH guidelines. Mice were injected with 40 μL CDN-loaded hydrogel (910 μM CDN) or 100 μL unloaded hydrogel in each of four separate sites in the subcutaneous space of the dorsal flank. At days 3 and 7 the mice were euthanized and the dorsal skin around the entire implant was removed, fixed overnight in 10% neutral buffered formalin, processed and paraffin embedded by the Baylor College of Medicine Pathology Core, and finally sectioned at 5 μm thickness for Masson's trichrome staining and hematoxylin and eosin (H&E) staining (FIGS. 14A-F and 16A-F).

[3] = system: CD45+/CD11b+/CD11c+ dendritic cells; test: Flow cytometric analysis of implant infiltration; assay type: in vivo, mice; conditions: for recruitment of immune cells to the hydrogel in vivo: subcutaneous flank of mice, within 3 days
Description: Flow cytometric analysis of implant infiltration. Implanted gels are harvested from mice, digested and processed into single cell suspension. Cells are incubated with blocking antibody, followed by addition of antibodies to create three panels: myeloid cells (CD45, Gr-1, Ly-6C, CD11b, F4/80), lymphoid cells (CD45, NK-1.1, CD11b, CD3e, CD8a, CD4, CD19) and dendritic cells (CD45, CD8a, CD11b, CD11c, PDCA-1 and CD103). For each time point five mice with two hydrogel boluses are assessed for an n of 10.

MOC2-E6E7 tumors = test: Tumor growth and survival study (Examples 3-4); assay type: in vivo, C57BL/6 mice
Description: Tumor growth and survival study. For tumor experiments, 6-8 week old wild-type C57BL/6 female mice were maintained in a pathogen-free environment for the study. All protocols were in accordance with the guidelines for humane treatment of laboratory animals by the National Institutes of Health, the Animal Welfare Committee and the Center for Laboratory Animal Medicine and Care (CLAMC) at the University of Texas Health Science Center at Houston. Mice were injected with MOC2-E6E7 tumor cells on day 0 into the maxillary oral vestibule (30,000 cells in 30 μL volume), followed by controls or gel injections loaded with or without CDN on day 3 in the same oral cavity location (20 lag CDN per 30 μL injection). Tumor growth was measured using calipers and body weight was taken in all subjects two to three times per week. Photographs were also obtained. Kaplan-Meier survival and tumor growth curve analyses were performed from data obtained. Mice that maintained tumor clearance for 100 days were re-challenged with MOC2-E6E7 tumor cells again at day 105 and monitored similarly. All endpoints in tumor growth curve and survival data are a result of euthanasia due to excessive tumor burden, defined as tumor reaching 12 mm, tumor ulceration, or a weight loss of greater than 20%. The inventors observed no signs of unexpected disease or discomfort in the mice over the course of the experiments.
Statistical methods. Statistical analyses for Kaplan-Meier survival curves were performed using the log-rank/Mantel-Cox test with GraphPad Prism (GraphPad, San Diego, CA). For tumor growth curves, the Wilcoxon rank sum test was used to compare tumor size between STINGel and other groups. No adjustment for multiple testing was made because the study is novel and exploratory. All p values are two-sided and p values less than 0.05 were considered as significant. All statistical analyses were performed using the SAS software (version 9.4, the SAS Institute, Cary, NC).

MOC-2-E6E7 tumors = test: MOC-2-E6E7 orthotopic murine model of HNSCC, survival (Example 2, FIG. 2E); parameters: species or system C57BL/6 mice; conditions: mouse, in vivo
Description: MOC-2-E6E7 Orthotopic murine model of HNSCC. 6 week-old male and female C57BL/6 mice will be inoculated in the left maxillary vestibule with MOC-2-E6E7 cells (30,000 cells in 30 μl volume). Animals will be monitored using a body condition scoring system to ensure they maintain a healthy weight and show no obvious signs of distress. At Day 14 post-tumor inoculation, STINGel (20 jug CDN in 30 μl of MDP hydrogel) or controls (as above) are injected into the oral tumor site. Animal studies will be done in triplicate, independent experiments for significance. Between-group differences in flow cytometric data will be statistically evaluated with one-way ANOVA and post-hoc analysis using Tukey's method. Differences between groups will be considered significant if p<0.05. In efficacy studies, Kaplan-Meier survival curves will be compared using the log-rank/Mantel-Cox test and tumor growth curves will be analyzed using the Koziol method (Koziol et al., 1981; 1982).

[4] = system: non-T cell-inflamed head and neck tumors; conditions: in vivo; cited from earlier work
MOC1 tumors = conditions: multiple intratumoral injections of CDN alone, cited from earlier work
MOC2 tumors = conditions: multiple CDN injections; cited from earlier work
[5] = 30 μL gels loaded with 910 μM CDN under 200 μL buffer

K2(SL)6K2 (SEQ ID NO: 1) (Ac-KKSLSLSLSLSLSLKK-NH2) [MDP gel, self-assembling multidomain peptide hydrogel, acetylated N-terminus and C-terminal amide]
decrease in release rate compared to collagen control gels, factor [1, 5]: 8
maximum release of loaded CDN (plateau/equilibrium) [1, 5]: approximately 68%
release rate in the initial linear release phase [1, 5]: 1.0 nmol CDN/hour
time of CDN release until equilibrium with surrounding buffer [1, 5]: 14 to 15 h
release profile of gels (FIG. 3A) [1]: intermediate release rates
cytocompatibility of unloaded hydrogel (MOC2-E6E7 cells; listed as Lys-MDP): substantial MOC-2-E6E7 proliferation (green cells) & minimal cell death
cytocompatibility of unloaded hydrogel (MOC2-E6E7 cells; listed as MDP hydrogel): not intrinsically toxic
cytocompatibility of unloaded hydrogel (MOC2-E6E7 cells; listed as unloaded MDP gel): fully biocompatible
cytocompatibility of unloaded hydrogel (MOC2-E6E7 cells; listed as unloaded MDP hydrogel): cells are able to survive and proliferate within the 3-D hydrogel matrix
cellular infiltration of implant ([2]; 3 days post subcutaneous injection, listed as MDP control): even infiltration of cells
cellular infiltration of implant ([2]; 3 days post subcutaneous injection, listed as MDP unloaded control): even infiltration of cells
cellular infiltration of implant ([2]; 3 days post subcutaneous injection, listed as unloaded MDP): Uniform cellular infiltration
cellular infiltration of implant ([2]; 7 days post subcutaneous injection): even infiltration of cells
recruitment of immune cells to the hydrogel in vivo ([3]; listed as Lys-MDP): substantial population
recruitment of immune cells to the hydrogel in vivo ([3]; listed as MDP hydrogel): robust recruitment of immunocytes
CD45+/CD11b+/CD11c+ dendritic cells ([3]; three days after subcutaneous injection, un-loaded): 13.5%
mice maintaining tumor clearance and reaching reinoculation point (MOC2-E6E7 tumors; day 105 after initial inoculation, n=10 per group): No mice
mortality before day 60 (MOC-2-E6E7 tumors): 100%

R2(SL)6R2 (SEQ ID NO: 4) (RRSLSLSLSLSLSLRR) [additional multidomain peptide hydrogel with arginine termini]
CDN release compared to collagen (FIG. 5B) [1]: better (slower) release compared to collagen; also recorded: the best of the group
release profile of gels (FIG. 3A) [1]: slowest, most prolonged release

Nc1ncnc2c1ncn2[C@@H]1O[C@@H]2COP(O)(=S)O[C@@H]3C(O)[C@@H](COP(O)(=S)O[C@H]2[C@H]1O)O[C@H]3n1cnc2c(N)ncnc21 (stereo partly drawn) [CDN, dithio-(RP,RP)-[cyclic[A(2′,5′)pA(3′,5′)p]]]
percent cell viability per mm3 of hydrogel vs no CDN (MOC2-E6E7 cells; 5 μM CDN): equivalent
percent cell viability per mm3 of hydrogel vs no CDN (MOC2-E6E7 cells; 57 μM CDN): equivalent
percent cell viability per mm3 of hydrogel vs no CDN (MOC2-E6E7 cells; 114 μM CDN): equivalent
percent cell viability per mm3 of hydrogel (MOC2-E6E7 cells; 228 μM CDN): reduced cell viability
percent cell viability per mm3 of hydrogel (MOC2-E6E7 cells; 455 μM CDN): no cell viability
percent cell viability per mm3 of hydrogel (MOC2-E6E7 cells; 910 μM CDN): no cell viability
max tolerable dose cells can experience in their local environment (MOC2-E6E7 cells; without the massive cell death observed at 455 μM and above): 228 µM
mice surviving until the endpoint of the study (MOC2-E6E7 tumors; 140 days post-tumor cell inoculation, single injection day 3, 20 μg CDN in 30 μL, n=10): 10%
effect on tumor growth (MOC2-E6E7 tumors; single injection day 3 post inoculation): ineffective in preventing tumor growth
mortality before day 60 (MOC-2-E6E7 tumors): 100%
efficacy [4]: completely ineffective
efficacy / tumor rejection (MOC1 tumors): only to a subset of MOC1 tumor rejection
efficacy / tumor rejection (MOC1 tumors; listed as CDN alone): minimal efficacy
tumor rejection (MOC2 tumors): unsuccessful MOC2 tumor rejection

E2(SL)6E2 (SEQ ID NO: 3) (EESLSLSLSLSLSLEE) [additional multidomain peptide hydrogel with glutamate termini]
CDN release compared to collagen (FIG. 5B) [1]: better (slower) release compared to collagen
release profile of gels (FIG. 3A) [1]: intermediate release rates
